# From patent US8071650B2, “Thiourea derivatives and the pharmaceutical compositions containing the same” (Pacific Corporation, priority 2000, dated 2011)
# pIC50: −log10 of the molar value. Where two headings read alike, the source gives them in different places.
# Assays:
# vanilloid receptor = biological target: T1, vanilloid receptor (Rattus norvegicus, UniProt O35433); assay: 45Ca influx test, antagonistic activity against capsaicin (Calcium Uptake Test, IC50); format: cell-based
# T1 construct: DRG nerve cells from the primary culture of 2-3 days were equilibrated; endogenous in cells; host or cells: primary culture of dorsal root ganglion neurons from neonatal SD rats
# Experimental: 1) Separation of Spinal Dorsal Root Ganglia (DRG) in Newborn Rats and Primary Culture Thereof
# Neonatal(2-day old or younger than 2-day old) SD rats were put in ice for 5 minutes to anesthetize and disinfected with 70% ethanol. […] The DRG were incubated sequentially at 37° C. for 30 min in 200 U/ml collagenase and 2.5 mg/ml trypsin, separately. The ganglia were washed twice with DME/F12 medium supplemented with 10% horse serum, triturated through a fire-polished Pasteur pipette, filtered through Nitex 40 membrane to obtain single cell suspension. This was subjected to centrifugation, then re-suspended in cell culture medium at certain level of cell density. As the cell culture medium, DME/F12 medium supplemented with 10% horse serum, diluted 1:1 with identical medium conditioned by C6 glioma cells (2 days on a confluent monolayer) was used, and NGF(Nerve Growth Factor) was added to final concentration of 200 ng/ml. After the cells were grown 2 days in medium where cytosine arabinoside (Ara-C, 100 μM) was added to kill dividing nonneuronal cells, medium was changed to one without Ara-C. The resuspended cells were plated at a density of 1500-1700 neurons/well onto Terasaki plates previously coated with 10 μg/ml poly-D-ornithine.
# 2) ^45Ca Influx Experiments
# DRG nerve cells from the primary culture of 2-3 days were equilibrated by washing 4 times with HEPES (10 mM, pH 7.4)-buffered Ca^2+, Mg^2+-free HBSS (H-HBSS). The solution in each well was removed from the individual well. Medium containing the test compound plus capsaicin (final concentration 0.5 μM) and ^45Ca (final concentration 10 μCi/ml) in H-HBSS was added to each well and incubated at room temperature for 10 min. Terasaki plates were washed six times with H-HBSS and dried in an oven. To each well, 0.3% SDS (10 μl) was added to elute ^45Ca. After the addition of […] of scintillation cocktail into each well, the amount of ^45Ca influx into neuron was measured by counting radioactivity.
# Male ICR mice [1] = assay: Analgesic activity test: mouse writhing test by inducing with phenyl-p-quinone; format: in vivo; conditions: ip, 30 min before phenyl-p-quinone, read-out: Analgesic effect (% Inhibition); for inhibition in vivo at 10 mg/kg: dose 10 mg/kg intraperitoneally; for inhibition in vivo at 3 mg/kg: dose 3 mg/kg intraperitoneally
# Experimental: (3) Analgesic Activity Test: Mouse Writhing Test by Inducing with phenyl-p-quinone
# Male ICR mice (mean body weight 25 g) were maintained in a controlled lighting environment (12 h on/12 h off) for experiment. Animals received an intraperitoneal injection of 0.3 ml of the chemical irritant phenyl-p-quinone (dissolved in saline containing 5% ethanol to be a dose of 4.5 mg/kg) and 6 min later, the number of abdominal constrictions was counted in the subsequent 6 min period. Animals (10 animals/group) received 0.2 ml of test compounds solution in vehicle of ethanol/Tween 80/saline (10/10/80) intraperitoneally 30 min before the injection of phenyl-p-quinone. A reduction in the number of writhes responding to the test drug compound relative to the number responding in saline control group was considered to be indicative of an analgesic effect Analgesic effect was calculated by % inhibition equation (% inhibition=(C−T)/C×100), wherein C and T represent the number of writhes in control and compound-treated group, respectively (Table 2).
# Male ICR mice [2] = assay: Antiinflammatory activity test: TPA-induced mouse ear edema test; format: in vivo; conditions: dose 1 mg/ear topically, ear weight 24 h after TPA
# Experimental: (4) Antiinflammatory Activity Test: TPA(12-O-tetraecanoylphorbol 13-acetate)-induced mouse ear edema test
# Male ICR mice(body weight 25-30 g), 10 animals/group, were treated topically on the right ear with 30 μl of TPA (2.5 μg) solution in acetone and after 15 min, 30 μl of acetone or test compound solution in acetone was applied topically. After six hours, an identical treatment was applied again. After twenty four hours following the treatment of TPA, the animals were sacrificed and ear tissue was dissected using 6 mm-diameter punch. Ear tissue dissected were weighed to the nearest 0.1 mg on an electrobalance. The increased weight of the tissue compared to control group was considered as an index of inflammation. The percent inhibition is defined by the following equation:
# % inhibition=(C−T)/C×100, wherein C and T represent an increase of ear weight in TPA-treated and TPA+drug-treated group, respectively (Table 3).
# Male SD rats = assay: Ulcer test: ethanol-induced anti-ulcer test; format: in vivo, rat; conditions: dose 30 mg/kg orally, 1 hour before 99% ethanol
# Experimental: (5) Ulcer Test: Ethanol-induced Anti-ulcer Test
# Male SD rats (body weight 180-200 g), 5 animals/group, were fasted for 24 hours, and their stomaches were damaged. The rats were administered with 10 ml/kg of test drug suspended in 1% methylceflulose orally and, after 1 hour, 1 ml of 99% ethanol orally. After 1 hour without food and water, the rats were sacrificed by cervical dislocation and stomaches thereof were removed. The removed stomaches were incised along the greater curvature and opened.
# [3] = Table 1a, neonatal SD rat DRG neurons, inhibition of response to capsaicin 0.5 μM
# T1 sequence (O35433 whole entry): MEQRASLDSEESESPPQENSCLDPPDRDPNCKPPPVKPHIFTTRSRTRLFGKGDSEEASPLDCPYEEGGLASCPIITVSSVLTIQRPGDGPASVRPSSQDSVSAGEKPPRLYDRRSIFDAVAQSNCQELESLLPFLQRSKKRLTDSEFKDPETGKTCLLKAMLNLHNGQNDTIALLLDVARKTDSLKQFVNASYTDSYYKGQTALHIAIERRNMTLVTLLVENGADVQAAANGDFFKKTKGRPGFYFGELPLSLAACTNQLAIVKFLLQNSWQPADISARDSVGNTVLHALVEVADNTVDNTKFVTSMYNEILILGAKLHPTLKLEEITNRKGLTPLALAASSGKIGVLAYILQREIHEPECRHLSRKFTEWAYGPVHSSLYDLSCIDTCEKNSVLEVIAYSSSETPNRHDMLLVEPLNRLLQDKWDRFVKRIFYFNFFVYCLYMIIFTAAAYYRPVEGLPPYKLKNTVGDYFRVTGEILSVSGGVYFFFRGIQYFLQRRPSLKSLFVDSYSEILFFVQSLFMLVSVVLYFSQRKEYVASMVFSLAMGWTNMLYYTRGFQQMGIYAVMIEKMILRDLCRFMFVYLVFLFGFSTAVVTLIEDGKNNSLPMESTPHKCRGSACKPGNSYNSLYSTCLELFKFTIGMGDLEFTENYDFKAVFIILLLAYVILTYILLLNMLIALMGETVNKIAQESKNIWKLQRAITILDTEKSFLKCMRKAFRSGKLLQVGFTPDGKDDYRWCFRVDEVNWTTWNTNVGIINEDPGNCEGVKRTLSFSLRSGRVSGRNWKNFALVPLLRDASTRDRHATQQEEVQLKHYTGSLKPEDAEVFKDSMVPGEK
structure (smiles),measurement,setting,value
"Oc1cc2c(cc1O)CN(C(=S)NCCc1ccc(Cl)cc1)CCC2 [Capsazepine, capsazepine, reference compound]",pIC50,vanilloid receptor,6.23
"Cn1cccc1CCNC(=S)NCc1ccc(C(C)(C)C)cc1 [Example 5, 1-(4-t-butylbenzyl)-3-[2-(1-methyl-1H-pyrrol-2-yl)ethyl]thiourea]",inhibition in vivo at 10 mg/kg,Male ICR mice [1],53%
same,pIC50,vanilloid receptor,5.96
"CC(C)(C)c1ccc(CNC(=S)NCc2cc(F)c(N)cc2F)cc1 [Example 9, 1-(4-amino-2,5-difluorobenzyl)-3-(4-t-butylbenzyl)thiourea]",pIC50,vanilloid receptor,6.64
"CC(C)(C)c1ccc(CNC(=S)NCc2ccc(NS(C)(=O)=O)c(F)c2)cc1 [Example 13, 1-(4-t-butylbenzyl)-3-(3-fluoro-4-methanesulfonylaminobenzyl)thiourea]",Anti-inflammtory effect (% Inhibition),Male ICR mice [2],74%
same,inhibition in vivo at 10 mg/kg,Male ICR mice [1],82%
same,pIC50,vanilloid receptor; [3],7.43
same,Anti-ulcerous effect (% inhibition),Male SD rats,30%
"CS(=O)(=O)Nc1ccc(CNC(=S)NCCc2ccccc2)cc1F [Example 15, 1-phenethyl-3-(3-fluoro-4-methanesulfonylaminobenzyl)thiourea]",pIC50,vanilloid receptor,5.92
CC(C)(C)c1ccc(CNC(=S)NCc2ccc(NS(C)(=O)=O)c(Cl)c2)cc1 [Example 17],Anti-inflammtory effect (% Inhibition),Male ICR mice [2],80%
same,inhibition in vivo at 10 mg/kg,Male ICR mice [1],98%
same,pIC50,vanilloid receptor; [3],8.08
same,Anti-ulcerous effect (% inhibition),Male SD rats,58%
COC(=O)c1cc(CNC(=S)NCc2ccc(C(C)(C)C)cc2)ccc1NS(C)(=O)=O [Example 18],pIC50,vanilloid receptor; [3],6.14
"CC(C)(C)c1ccc(CNC(=S)NCc2ccc(NS(C)(=O)=O)c(C(=O)O)c2)cc1 [Example 19, 1-(4-t-butylbenzyl)-3-(3-carboxyl-4-methanesulfonylaminobenzyl)thiourea]",pIC50,vanilloid receptor,8.24
COC(=O)c1cccc(CNC(=S)NCc2ccc(C(C)(C)C)cc2)c1 [Example 30],pIC50,vanilloid receptor,5.82
"CC(C)(C)c1ccc(CNC(=S)NCc2c(F)c(F)c(NS(C)(=O)=O)c(F)c2F)cc1 [Example 32, 1-(4-t-butylbenzyl)-3-(2,3,5,6-tetrafluoro-4-methanesulfonylaminobenzyl)thiourea]",pIC50,vanilloid receptor,7.51
"CC(C)(C)c1ccc(CNC(=S)NCc2cc(F)c(NS(C)(=O)=O)cc2F)cc1 [Example 33, 1-(4-t-butylbenzyl)-3-(2,5-difluoro-4-methanesulfonylaminobenzyl)thiourea]",Anti-inflammtory effect (% Inhibition),Male ICR mice [2],66%
same,pIC50,vanilloid receptor,6.96
same,Anti-ulcerous effect (% inhibition),Male SD rats,31%
"CC(C)(C)c1ccc(CNC(=S)NCCc2ccc(NS(C)(=O)=O)cc2)cc1 [Example 36, 1-(4-t-butylbenzyl)-3-(4-methanesulfonylaminophenethyl)thiourea]",pIC50,vanilloid receptor,5.96
CC(C)(C)c1ccc(CNC(=S)NCc2ccc(NS(C)(=O)=O)cc2)cc1 [Example 44],Anti-inflammtory effect (% Inhibition),Male ICR mice [2],83%
same,inhibition in vivo at 3 mg/kg,Male ICR mice [1],92%
same,Anti-ulcerous effect (% inhibition),Male SD rats,36%
"CC(C)(C)c1ccc(CNC(=S)NCc2c(F)ccc(NS(C)(=O)=O)c2F)cc1 [Example 51, 1-(4-t-butylbenzyl)-3-(2,6-difluoro-3-methanesulfonylaminobenzyl)thiourea]",pIC50,vanilloid receptor,6.15
"CC(C)(C)c1ccc(CNC(=S)NCc2cccc(NS(C)(=O)=O)c2)cc1 [Example 52, 1-(4-t-butylbenzyl)-3-(3-methanesulfonylaminobenzyl)thiourea]",inhibition in vivo at 10 mg/kg,Male ICR mice [1],94%
"CC(=O)OCc1cc(C(C)(C)C)ccc1CNC(=S)Nc1ccc(NS(C)(=O)=O)cc1 [Example 70, 1-(2-acetoxymethyl-4-t-butylbenzyl)-3-(4-methanesulfonylaminobenzene)thiourea]",pIC50,"vanilloid receptor; Table 1b, neonatal SD rat DRG neurons, inhibition of response to capsaicin 0.5 μM",6.24
"Cc1ncsc1CCNC(=S)NCc1ccc(C(C)(C)C)cc1 [Example 73, 1-(4-t-butylbenzyl)-3-[2-(4-methylthiazol-5-yl)ethyl]thiourea]",Anti-inflammtory effect (% Inhibition),Male ICR mice [2],77%
same,inhibition in vivo at 10 mg/kg,Male ICR mice [1],88%
same,pIC50,vanilloid receptor,5.92
same,Anti-ulcerous effect (% inhibition),Male SD rats,22%
CC(C)(C)c1ccc(CNC(=S)NCCc2ccccn2)cc1 [Example 83],inhibition in vivo at 10 mg/kg,Male ICR mice [1],85%
same,pIC50,vanilloid receptor,5.96
CC(C)(C)c1ccc(CNC(=S)NCc2cc(F)ccc2F)cc1 [Example 90],pIC50,vanilloid receptor,6.38
CC(C)(C)c1ccc(CNC(=S)NCCc2cccc(F)c2)cc1 [Example 96],inhibition in vivo at 10 mg/kg,Male ICR mice [1],58%
same,pIC50,vanilloid receptor,6.23
Cn1cc(NS(C)(=O)=O)cc1CNC(=S)NCc1ccc(C(C)(C)C)cc1 [Example 134],pIC50,vanilloid receptor,6.09
COc1cc(CCCN(Cc2ccccc2)/C(S)=N/CCc2ccccc2)ccc1O [Example 152],pIC50,vanilloid receptor,6.02
COc1cc(CCCN(C(=S)NCCc2ccccc2)C(c2ccccc2)c2ccccc2)ccc1O [Example 161],inhibition in vivo at 1 mg/kg,Male ICR mice [1]; dose 1 mg/kg intraperitoneally,73%
same,pIC50,vanilloid receptor,6.34
CC(C)(C)c1ccc(CNC(=NC#N)NCc2ccc(NS(C)(=O)=O)cc2)cc1 [Example 178],pIC50,vanilloid receptor,6.96
"CC(C)(C)c1ccc(CCC(=O)NCc2ccc(NS(C)(=O)=O)c(F)c2)cc1 [Example 193, N-(3-fluoro-4-methanesulfonylaminobenzyl) 3-(4-t-butylphenyl)propionamide]",pIC50,vanilloid receptor,6.68
"CNS(=O)(=O)Nc1ccc(C/N=C(\S)NCc2ccc(C(C)(C)C)cc2)cc1 [Example 194, 1-(4-t-butylbenzyl)-3-(4-methylaminosulfonylaminobenzyl)thiourea]",pIC50,vanilloid receptor,6.51
"CC(C)(C)c1ccc(CNC(=S)NCc2ccc(NS(N)(=O)=O)cc2)cc1 [Example 196, 1-(4-t-butylbenzyl)-3-(4-aminosulfonylaminobenzyl)thiourea]",pIC50,vanilloid receptor,6.82
"COc1ccc2c(c1)c(CC(=O)O)c(C)n2C(=O)c1ccc(Cl)cc1 [Indomethacin, indomethacin, reference compound]",Anti-inflammtory effect (% Inhibition),Male ICR mice [2],74%
same,inhibition in vivo at 3 mg/kg,Male ICR mice [1],94%
"CNC(=C[N+](=O)[O-])NCCSCc1ccc(CN(C)C)o1 [Ranitidine, ranitidine, reference compound]",Anti-ulcerous effect (% inhibition),Male SD rats,4%
